In ChEMBL document CHEMBL1127298, “Bis-catechol-substituted redox-reactive analogues of hexamethonium and decamethonium: stimulated affinity-dependent reactivity through iron peroxide catalysis” (J Med Chem, 1994):

Assays:
Acetylcholine receptor [1] = target: T1, Acetylcholine receptor (Torpedo californica, UniProt P02710+P02712+P02714+P02718); assay: Binding affinity against nicotinic acetylcholine receptor (nAChR); type: protein-complex assay, Tetronarce californica
Acetylcholine receptor [2] = target: T1, Acetylcholine receptor; assay: Compound was evaluated for the binding constant for association with nicotinic acetylcholine receptor (nAChR); type: protein-complex assay, Tetronarce californica

T1 sequence (P02710 whole entry): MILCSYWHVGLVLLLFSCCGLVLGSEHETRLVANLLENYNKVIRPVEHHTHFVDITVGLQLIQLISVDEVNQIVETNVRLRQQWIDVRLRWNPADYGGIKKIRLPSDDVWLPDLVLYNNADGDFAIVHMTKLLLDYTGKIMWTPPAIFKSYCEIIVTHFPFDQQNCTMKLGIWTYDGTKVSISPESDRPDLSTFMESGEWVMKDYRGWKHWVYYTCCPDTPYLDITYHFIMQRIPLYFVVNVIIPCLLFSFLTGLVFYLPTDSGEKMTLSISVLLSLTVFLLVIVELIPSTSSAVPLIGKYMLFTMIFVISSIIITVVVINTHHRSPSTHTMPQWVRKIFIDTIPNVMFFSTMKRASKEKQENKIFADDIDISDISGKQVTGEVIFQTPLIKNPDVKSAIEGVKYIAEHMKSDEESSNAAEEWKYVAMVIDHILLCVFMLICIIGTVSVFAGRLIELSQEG
T1 sequence (P02712 whole entry): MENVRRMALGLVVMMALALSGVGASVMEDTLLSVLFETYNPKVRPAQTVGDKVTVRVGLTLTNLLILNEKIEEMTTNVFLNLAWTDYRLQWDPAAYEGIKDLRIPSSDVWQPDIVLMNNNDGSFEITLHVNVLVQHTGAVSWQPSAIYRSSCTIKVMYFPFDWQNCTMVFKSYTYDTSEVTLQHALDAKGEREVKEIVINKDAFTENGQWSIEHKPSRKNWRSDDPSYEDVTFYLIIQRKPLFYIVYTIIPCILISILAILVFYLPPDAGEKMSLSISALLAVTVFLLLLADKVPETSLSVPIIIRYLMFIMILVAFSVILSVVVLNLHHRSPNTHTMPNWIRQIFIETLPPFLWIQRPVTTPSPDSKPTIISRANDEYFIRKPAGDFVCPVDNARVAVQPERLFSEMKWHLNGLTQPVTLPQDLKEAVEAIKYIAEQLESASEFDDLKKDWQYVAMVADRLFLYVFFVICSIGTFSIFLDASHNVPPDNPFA
T1 sequence (P02718 whole entry): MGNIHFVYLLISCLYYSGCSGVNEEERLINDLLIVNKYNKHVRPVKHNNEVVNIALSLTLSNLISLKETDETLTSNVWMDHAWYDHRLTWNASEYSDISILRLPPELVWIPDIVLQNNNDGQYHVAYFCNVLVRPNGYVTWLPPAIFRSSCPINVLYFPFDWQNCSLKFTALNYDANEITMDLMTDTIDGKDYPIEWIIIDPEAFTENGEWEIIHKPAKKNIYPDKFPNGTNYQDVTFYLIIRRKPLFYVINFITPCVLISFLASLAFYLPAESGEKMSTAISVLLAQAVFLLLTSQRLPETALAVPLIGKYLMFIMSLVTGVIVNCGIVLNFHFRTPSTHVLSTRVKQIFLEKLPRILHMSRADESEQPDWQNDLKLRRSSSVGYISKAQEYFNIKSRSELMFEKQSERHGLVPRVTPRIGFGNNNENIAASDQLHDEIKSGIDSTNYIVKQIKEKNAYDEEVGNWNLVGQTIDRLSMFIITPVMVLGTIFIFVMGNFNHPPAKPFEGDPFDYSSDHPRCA
T1 sequence (P02714 whole entry): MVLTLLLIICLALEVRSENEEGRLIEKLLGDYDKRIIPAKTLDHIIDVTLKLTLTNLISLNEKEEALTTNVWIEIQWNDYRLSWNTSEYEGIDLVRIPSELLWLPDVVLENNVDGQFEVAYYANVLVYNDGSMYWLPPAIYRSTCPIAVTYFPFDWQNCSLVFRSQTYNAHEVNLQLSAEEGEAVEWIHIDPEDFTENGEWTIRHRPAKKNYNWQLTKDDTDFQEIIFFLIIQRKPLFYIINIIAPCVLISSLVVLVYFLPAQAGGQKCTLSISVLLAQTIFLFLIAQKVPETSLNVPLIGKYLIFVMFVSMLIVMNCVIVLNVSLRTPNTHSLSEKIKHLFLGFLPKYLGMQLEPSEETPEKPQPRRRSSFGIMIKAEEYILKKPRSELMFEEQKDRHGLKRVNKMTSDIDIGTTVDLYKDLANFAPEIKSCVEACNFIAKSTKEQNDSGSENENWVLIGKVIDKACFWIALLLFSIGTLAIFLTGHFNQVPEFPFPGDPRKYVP

SMILES | Ki (Acetylcholine receptor [1]) [nM] | Kd (Acetylcholine receptor [2]) [nM]
C[N+](C)(CCCCCC[N+](C)(C)Cc1cccc(O)c1O)Cc1cccc(O)c1O | 18 | 18
C[N+](C)(CCCCCCCCCC[N+](C)(C)Cc1cccc(O)c1O)Cc1cccc(O)c1O |  | 230
C[N+](C)(C)Cc1cccc(O)c1O | 28000 | 
C[N+](C)(C)CCCCCC[N+](C)(C)C [HEXAMETHONIUM BROMIDE] |  | 18
